From ChEMBL document CHEMBL3431459, “Roche carnitine palmitoyltransferase modulator screening data (supplementary data associated with the publication CHEMBL2216752)” come the findings set out here.

Assay [1] addresses T1, Carnitine O-palmitoyltransferase 1, muscle isoform (Homo sapiens, UniProt Q92523).
T1 sequence (Q92523 whole entry): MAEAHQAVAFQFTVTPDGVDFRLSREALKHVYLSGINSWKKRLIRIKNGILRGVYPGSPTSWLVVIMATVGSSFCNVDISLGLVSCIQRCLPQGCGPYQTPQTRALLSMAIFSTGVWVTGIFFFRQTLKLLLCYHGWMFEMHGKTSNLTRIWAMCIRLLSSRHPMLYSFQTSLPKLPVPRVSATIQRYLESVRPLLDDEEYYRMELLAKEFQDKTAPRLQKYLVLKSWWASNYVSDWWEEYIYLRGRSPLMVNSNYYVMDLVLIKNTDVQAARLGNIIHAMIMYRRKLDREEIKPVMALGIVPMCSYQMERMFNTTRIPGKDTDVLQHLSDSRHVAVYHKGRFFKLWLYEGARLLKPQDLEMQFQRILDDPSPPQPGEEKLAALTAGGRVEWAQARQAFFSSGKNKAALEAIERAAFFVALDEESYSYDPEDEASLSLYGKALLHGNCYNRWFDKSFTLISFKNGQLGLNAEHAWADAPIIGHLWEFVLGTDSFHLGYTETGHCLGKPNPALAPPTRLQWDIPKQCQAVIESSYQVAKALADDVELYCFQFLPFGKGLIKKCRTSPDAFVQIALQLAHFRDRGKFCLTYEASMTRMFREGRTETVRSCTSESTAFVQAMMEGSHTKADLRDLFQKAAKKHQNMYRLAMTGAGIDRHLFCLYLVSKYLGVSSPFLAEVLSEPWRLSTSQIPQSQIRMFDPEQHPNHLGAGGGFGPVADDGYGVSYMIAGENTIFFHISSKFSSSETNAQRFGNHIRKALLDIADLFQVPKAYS
The experiment in a line: SUPPLEMENTARY: Inhibition of Carnitine palmitoyltransferase 1, muscle isoform. Set-up: species or system Muscle tissue.

Assay [2] has as its target T2, Carnitine O-palmitoyltransferase 2, mitochondrial (Homo sapiens, UniProt P23786).
T2 sequence (P23786 whole entry): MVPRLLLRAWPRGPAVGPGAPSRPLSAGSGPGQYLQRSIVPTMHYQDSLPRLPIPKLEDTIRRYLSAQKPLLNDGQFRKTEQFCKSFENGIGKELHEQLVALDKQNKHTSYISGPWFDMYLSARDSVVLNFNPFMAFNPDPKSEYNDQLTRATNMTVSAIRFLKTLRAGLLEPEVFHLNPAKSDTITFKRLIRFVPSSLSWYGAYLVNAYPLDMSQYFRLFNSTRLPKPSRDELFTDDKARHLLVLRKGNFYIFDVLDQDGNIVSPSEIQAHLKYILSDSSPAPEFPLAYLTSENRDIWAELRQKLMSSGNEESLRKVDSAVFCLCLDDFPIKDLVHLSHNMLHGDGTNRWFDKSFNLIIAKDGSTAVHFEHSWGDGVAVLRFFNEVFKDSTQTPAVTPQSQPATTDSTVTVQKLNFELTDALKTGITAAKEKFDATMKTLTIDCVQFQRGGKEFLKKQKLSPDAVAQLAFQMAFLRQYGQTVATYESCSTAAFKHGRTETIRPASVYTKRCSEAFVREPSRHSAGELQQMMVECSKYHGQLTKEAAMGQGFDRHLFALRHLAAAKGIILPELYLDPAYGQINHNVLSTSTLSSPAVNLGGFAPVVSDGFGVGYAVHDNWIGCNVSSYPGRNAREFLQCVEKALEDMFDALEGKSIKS
The assay can be described thus: (§1) SUPPLEMENTARY: Inhibition of Carnitine palmitoyltransferase 2.

Assay [3] concerns the target T3, Carnitine O-palmitoyltransferase 2, mitochondrial (Rattus norvegicus, UniProt P18886).
T3 sequence (P18886 whole entry): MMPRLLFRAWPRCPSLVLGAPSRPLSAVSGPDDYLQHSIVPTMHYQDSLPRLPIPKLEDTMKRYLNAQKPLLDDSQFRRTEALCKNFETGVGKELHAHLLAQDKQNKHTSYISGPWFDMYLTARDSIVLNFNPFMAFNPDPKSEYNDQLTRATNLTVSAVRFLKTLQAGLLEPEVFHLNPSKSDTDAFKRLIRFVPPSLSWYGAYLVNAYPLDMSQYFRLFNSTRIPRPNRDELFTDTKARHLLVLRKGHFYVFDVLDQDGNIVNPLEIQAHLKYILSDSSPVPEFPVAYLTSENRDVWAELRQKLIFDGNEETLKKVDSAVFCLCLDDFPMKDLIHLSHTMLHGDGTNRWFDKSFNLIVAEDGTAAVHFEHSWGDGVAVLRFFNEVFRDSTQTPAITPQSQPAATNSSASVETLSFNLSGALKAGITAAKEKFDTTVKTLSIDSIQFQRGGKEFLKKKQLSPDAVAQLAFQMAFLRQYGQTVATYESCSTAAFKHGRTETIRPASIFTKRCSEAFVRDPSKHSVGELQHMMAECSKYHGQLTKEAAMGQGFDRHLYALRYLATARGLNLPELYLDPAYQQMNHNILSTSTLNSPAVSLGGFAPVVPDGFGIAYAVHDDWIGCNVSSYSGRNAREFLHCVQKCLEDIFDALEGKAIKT
The description is as §1.

Assay [4] has as its target T4, Carnitine O-palmitoyltransferase 1, liver isoform (Homo sapiens, UniProt P50416).
T4 sequence (P50416 whole entry): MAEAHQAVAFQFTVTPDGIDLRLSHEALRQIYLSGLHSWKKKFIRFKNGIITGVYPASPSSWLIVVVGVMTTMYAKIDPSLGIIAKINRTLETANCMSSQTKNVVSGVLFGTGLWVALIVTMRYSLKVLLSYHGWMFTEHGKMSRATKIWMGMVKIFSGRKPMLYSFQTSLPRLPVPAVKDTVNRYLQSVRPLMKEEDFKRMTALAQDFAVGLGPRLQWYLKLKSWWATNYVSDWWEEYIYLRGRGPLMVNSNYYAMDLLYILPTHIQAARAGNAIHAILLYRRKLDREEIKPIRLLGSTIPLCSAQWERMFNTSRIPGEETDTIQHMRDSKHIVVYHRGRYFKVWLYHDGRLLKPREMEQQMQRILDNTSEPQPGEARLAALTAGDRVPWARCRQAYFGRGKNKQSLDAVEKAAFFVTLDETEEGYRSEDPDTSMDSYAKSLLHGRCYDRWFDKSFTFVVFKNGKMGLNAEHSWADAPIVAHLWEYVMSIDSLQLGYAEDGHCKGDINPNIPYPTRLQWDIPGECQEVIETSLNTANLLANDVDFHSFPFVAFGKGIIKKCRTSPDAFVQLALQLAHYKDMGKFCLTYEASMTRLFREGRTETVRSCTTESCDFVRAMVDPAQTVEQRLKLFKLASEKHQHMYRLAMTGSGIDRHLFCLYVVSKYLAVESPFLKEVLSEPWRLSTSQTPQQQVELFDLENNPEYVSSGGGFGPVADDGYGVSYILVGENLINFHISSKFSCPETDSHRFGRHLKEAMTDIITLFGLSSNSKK
The assay can be described thus: (§2) SUPPLEMENTARY: Inhibition of Carnitine palmitoyltransferase 1, liver isoform.

Assay [5] concerns the target T5, Carnitine O-palmitoyltransferase 1, liver isoform (Rattus norvegicus, UniProt P32198).
T5 sequence (P32198 whole entry): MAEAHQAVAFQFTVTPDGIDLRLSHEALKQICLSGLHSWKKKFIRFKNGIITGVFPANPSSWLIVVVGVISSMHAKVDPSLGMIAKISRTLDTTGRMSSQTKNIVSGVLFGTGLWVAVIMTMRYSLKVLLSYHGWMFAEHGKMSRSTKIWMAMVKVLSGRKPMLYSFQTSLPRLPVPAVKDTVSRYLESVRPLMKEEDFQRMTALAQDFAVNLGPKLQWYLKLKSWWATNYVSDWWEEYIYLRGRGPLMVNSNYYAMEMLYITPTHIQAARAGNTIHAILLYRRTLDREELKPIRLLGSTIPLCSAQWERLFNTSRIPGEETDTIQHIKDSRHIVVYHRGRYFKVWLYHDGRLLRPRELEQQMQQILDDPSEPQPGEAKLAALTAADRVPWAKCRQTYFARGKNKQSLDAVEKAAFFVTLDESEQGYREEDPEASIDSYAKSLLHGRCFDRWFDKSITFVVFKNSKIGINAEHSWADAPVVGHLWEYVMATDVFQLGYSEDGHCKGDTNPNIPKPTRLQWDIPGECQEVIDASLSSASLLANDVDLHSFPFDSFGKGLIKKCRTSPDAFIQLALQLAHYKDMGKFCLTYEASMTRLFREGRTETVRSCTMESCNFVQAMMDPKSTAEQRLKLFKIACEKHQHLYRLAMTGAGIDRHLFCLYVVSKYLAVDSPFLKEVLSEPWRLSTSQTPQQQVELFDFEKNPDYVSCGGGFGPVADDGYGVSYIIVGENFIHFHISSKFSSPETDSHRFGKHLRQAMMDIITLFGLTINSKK
The assay is described as §2.

For `O=C1Nc2ccc(-c3n[nH]c([C@H]4CCCCN4C(=O)COc4ccccc4)n3)cc2CO1`, the IC50 (in general, the concentration that gives 50% inhibition) in assay [1] amounted to 70700 nM; in assay [2], 26400 nM; in assay [3], 50400 nM; in assay [4], 223 nM; in assay [5] it was 840 nM.
As to `COc1ccc(Cl)cc1S(=O)(=O)N1CCSc2ccc(C(=O)Nc3ccc(C(=O)O)c(Cl)c3)cc21`, the IC50 in assay [1] turned out to be 1520 nM; in assay [2], 4360 nM; in assay [3], 10600 nM; in assay [4], 87.4 nM; in assay [5] it was 124 nM.
For `O=C1CCC(=O)N1c1cc(F)cc(-c2noc([C@H]3CCCCN3C(=O)COc3ccccc3)n2)c1` the same measures were above 100000 nM, 16200 nM, above 100000 nM, 75.7 nM and 386 nM.
On the same counts, the results for `O=C([C@H]1CCCCN1C(=O)COc1ccccc1)N1CCN(c2ccccn2)CC1` are above 100000 nM, 1030 nM, 3350 nM, 238 nM and 588 nM.
On the same counts, the results for `O=C([C@H]1CCCCN1C(=O)COc1ccccc1)N1CCN(c2ncccn2)CC1` are above 100000 nM, 1560 nM, 2610 nM, 167 nM and 322 nM.
In the case of `O=C([C@H]1CCCCN1C(=O)COc1ccccc1)N1CCN(c2cc(Cl)cc(Cl)c2)CC1`, the IC50 in assay [1] was above 100000 nM; in assay [2], 3130 nM; in assay [3] it was 961 nM; in assay [4] it was 198 nM; in assay [5] it was 388 nM.
Regarding `O=C([C@H]1CCCCN1C(=O)COc1ccccc1)N1CCN(c2cccc(Cl)c2)CC1`, the half-maximal inhibitory concentration (IC50) in assay [1] is above 100000 nM; in assay [2] it was 544 nM; in assay [3] it was 291 nM; in assay [4] it was 151 nM; in assay [5], 233 nM.
On the same counts, the results for `Cc1ccnc(N2CCN(C(=O)[C@H]3CCCCN3C(=O)COc3ccccc3)CC2)c1` are 31700 nM, 586 nM, 1270 nM, 124 nM and 196 nM.
`O=C(COc1ccccc1)N1CCCC[C@@H]1c1nc(-c2ccc(Cl)cc2)cs1`: the IC50 is above 100000 nM in assay [1]; above 100000 nM in assay [2]; above 100000 nM in assay [3]; 1380 nM in assay [4]; 1230 nM in assay [5].
Regarding `COc1ccc(Cl)cc1S(=O)(=O)c1c2cc(C(=O)Nc3ccccc3)ccc2nn1C`, the IC50 in assay [1] is above 100000 nM; in assay [2], above 100000 nM; in assay [3], above 100000 nM; in assay [4] it was 162 nM; in assay [5], 381 nM.
Take `COc1ccc(Cl)cc1S(=O)(=O)c1n[nH]c2ccc(C(=O)Nc3ccccc3)cc12`: the IC50 in assay [1] is above 100000 nM; in assay [2], above 100000 nM; in assay [3], above 100000 nM; in assay [4], 172 nM; in assay [5] it was 102 nM.
In the case of `O=C([C@H]1CCCCN1C(=O)COc1ccccc1)N1Cc2ccc(OC3CCOCC3)cc2C1`, the IC50 in assay [1] was above 100000 nM; in assay [2], 193 nM; in assay [3] it was 643 nM; in assay [4], 103 nM; in assay [5] it was 72.7 nM.
Regarding `O=C([C@H]1CCCCN1C(=O)COc1ccccc1)N1Cc2ccc(O[C@H]3CCOC3)cc2C1`, the IC50 is above 100000 nM in assay [1]; 551 nM in assay [2]; 1330 nM in assay [3]; 118 nM in assay [4]; 35.7 nM in assay [5].
For `O=C(O)c1ccccc1CCc1ccc(NS(=O)(=O)c2ccc(Cl)cc2)cc1` the same measures were above 100000 nM, above 100000 nM, 28000 nM, above 10000 nM and above 10000 nM.
In the case of `COc1ccc(Cl)cc1[S+]([O-])c1c[nH]c2ccc(C(=O)Nc3ccccc3)cc12` (stereo not given), the IC50 was above 100000 nM in assay [1]; above 100000 nM in assay [2]; above 100000 nM in assay [3]; above 10000 nM in assay [4]; above 10000 nM in assay [5].
As for `COc1ccc(Cl)cc1S(=O)(=O)N1C[C@@H](C(=O)O)Oc2ccc(C(=O)Nc3ccccc3)cc21`, the IC50 in assay [1] is 16900 nM; in assay [2], above 100000 nM; in assay [3], above 100000 nM; in assay [4], 40.2 nM; in assay [5], 14.6 nM.
